According to patent US7115624B1, “Method of inhibiting protein tyrosine phosphatase 1B and/or T-cell protein tyrosine phosphatase 4 and/or other PTPases with an Asp residue at position 48” (Novo Nordisk A/S, priority 1999, dated 2006):
Read-outs that look alike come from different tables or passages of the source.

What was measured:
PTPε = target: T1, PTPε (Homo sapiens, UniProt P23469); assay: PTPase inhibition, p-nitrophenyl phosphate substrate, Ki; type: biochemical
T1 construct: PTPε D1
Protocol: (§1) The assay conditions are as follows. Appropriate concentrations of the compounds of the invention (e.g., 0.1 to 100 μM) are added to the reaction mixtures containing different concentrations of the substrate, p-nitrophenyl phosphate (range: 0.16 to 10 mM—final assay concentration). The buffer used was 50 mM HEPES pH 7.0, 100 mM sodium chloride, 0.1% (w/v) bovine serum albumin, 5 mM glutathione, and 1 mM EDTA. The reaction was started by addition of the enzyme and carried out in microtiter plates at 25° C. for 60 minutes. The reactions are stopped by addition of NaOH. […] The data are analyzed using nonlinear regression fit to classical Michaelis Menten enzyme kinetic models. Inhibition is expressed as Ki values in μM.

PTPβ = PTPβ (Homo sapiens, UniProt P23467); assay: as above; type: biochemical
Sequence of PTPβ (P23467 1703-1963 limits assumed): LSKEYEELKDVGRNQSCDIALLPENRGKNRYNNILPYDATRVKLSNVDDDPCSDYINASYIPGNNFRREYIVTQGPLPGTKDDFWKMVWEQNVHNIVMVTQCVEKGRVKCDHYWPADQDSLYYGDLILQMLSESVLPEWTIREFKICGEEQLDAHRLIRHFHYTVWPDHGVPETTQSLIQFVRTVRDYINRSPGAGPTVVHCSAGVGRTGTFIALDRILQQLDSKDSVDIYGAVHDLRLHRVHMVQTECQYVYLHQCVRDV
Protocol: as §1

CD45 = target: T2, CD45 (Homo sapiens, UniProt P08575); assay: as above; type: biochemical; conditions: read-out: Ki values, CD45 D1D2
T2 sequence (P08575 599-1306 limits assumed): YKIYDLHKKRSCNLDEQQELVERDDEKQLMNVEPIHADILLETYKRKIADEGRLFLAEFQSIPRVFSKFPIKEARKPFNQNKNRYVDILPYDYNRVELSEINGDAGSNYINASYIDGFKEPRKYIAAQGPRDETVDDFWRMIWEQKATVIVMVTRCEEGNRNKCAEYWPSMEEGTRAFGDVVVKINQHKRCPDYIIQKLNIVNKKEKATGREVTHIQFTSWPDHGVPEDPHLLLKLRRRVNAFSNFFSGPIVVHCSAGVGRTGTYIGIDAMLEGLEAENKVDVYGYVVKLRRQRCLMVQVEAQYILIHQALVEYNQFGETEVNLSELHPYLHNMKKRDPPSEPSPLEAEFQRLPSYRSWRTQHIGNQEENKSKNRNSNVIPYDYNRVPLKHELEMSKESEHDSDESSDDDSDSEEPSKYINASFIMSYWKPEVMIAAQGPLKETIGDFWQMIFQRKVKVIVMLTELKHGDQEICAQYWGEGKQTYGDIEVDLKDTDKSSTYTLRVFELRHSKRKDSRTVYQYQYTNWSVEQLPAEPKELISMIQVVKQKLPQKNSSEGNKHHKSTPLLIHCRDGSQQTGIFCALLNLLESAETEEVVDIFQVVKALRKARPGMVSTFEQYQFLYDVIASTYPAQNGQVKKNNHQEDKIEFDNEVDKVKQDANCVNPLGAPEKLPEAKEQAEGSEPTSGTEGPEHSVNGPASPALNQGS
Protocol: as §1

LAR = target: T3, LAR (Homo sapiens, UniProt P10586); assay: as above; type: biochemical; conditions: pH 5.5; D1D2; read-out: Ki values, LAR D1D2
T3 sequence (P10586 1285-1907 limits assumed): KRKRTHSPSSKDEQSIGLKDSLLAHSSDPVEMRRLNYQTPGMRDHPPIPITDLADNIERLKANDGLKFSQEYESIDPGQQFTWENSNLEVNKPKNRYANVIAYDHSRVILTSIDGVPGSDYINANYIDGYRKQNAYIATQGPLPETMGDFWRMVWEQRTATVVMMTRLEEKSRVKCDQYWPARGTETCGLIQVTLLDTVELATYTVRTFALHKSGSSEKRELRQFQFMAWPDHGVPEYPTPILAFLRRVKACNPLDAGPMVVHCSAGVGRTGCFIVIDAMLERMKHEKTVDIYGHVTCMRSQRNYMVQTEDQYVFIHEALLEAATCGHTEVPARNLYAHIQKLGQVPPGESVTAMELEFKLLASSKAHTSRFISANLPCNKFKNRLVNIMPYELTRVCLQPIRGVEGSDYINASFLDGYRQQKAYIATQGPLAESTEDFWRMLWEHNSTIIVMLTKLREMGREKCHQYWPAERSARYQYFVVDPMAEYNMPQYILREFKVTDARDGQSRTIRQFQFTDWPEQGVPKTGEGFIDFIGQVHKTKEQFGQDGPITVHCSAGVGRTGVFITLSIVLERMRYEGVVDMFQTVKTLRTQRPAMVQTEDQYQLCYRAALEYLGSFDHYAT

PTPα = target: T4, PTPα (Homo sapiens, UniProt P18433); assay: as above; type: biochemical
T4 construct: PTPα D1
T4 sequence (P18433 241-501 limits assumed): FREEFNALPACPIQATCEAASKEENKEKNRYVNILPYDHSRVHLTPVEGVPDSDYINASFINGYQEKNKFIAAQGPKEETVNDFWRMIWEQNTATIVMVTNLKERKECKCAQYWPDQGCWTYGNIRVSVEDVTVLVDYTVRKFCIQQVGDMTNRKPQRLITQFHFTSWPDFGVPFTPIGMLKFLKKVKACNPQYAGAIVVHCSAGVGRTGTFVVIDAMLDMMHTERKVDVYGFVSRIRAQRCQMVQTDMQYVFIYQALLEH

SHP-1 = SHP-1 (Homo sapiens, UniProt P29350); assay: biochemical
Sequence of SHP-1 (P29350 whole entry): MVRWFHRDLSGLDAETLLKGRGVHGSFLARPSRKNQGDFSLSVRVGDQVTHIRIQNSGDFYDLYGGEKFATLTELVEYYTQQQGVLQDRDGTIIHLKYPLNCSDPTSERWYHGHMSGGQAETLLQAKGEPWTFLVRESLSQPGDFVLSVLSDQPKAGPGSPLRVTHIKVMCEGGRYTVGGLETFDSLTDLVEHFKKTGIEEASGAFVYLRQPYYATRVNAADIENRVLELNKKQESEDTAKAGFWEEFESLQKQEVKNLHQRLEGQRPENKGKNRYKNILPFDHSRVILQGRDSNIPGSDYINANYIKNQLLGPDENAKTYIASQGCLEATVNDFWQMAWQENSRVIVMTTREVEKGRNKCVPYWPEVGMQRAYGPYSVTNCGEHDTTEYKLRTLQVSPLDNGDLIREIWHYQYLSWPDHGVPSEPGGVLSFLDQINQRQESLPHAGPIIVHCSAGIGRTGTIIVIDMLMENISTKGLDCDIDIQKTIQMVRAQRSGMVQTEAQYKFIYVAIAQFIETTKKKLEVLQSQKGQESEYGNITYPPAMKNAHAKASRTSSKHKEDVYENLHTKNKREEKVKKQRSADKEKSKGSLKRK

PTP1B = target: T5, PTP1B (Homo sapiens, UniProt P18031); assay: PTPase inhibition, p-nitrophenyl phosphate substrate, Ki; type: biochemical
T5 sequence (P18031 1-321): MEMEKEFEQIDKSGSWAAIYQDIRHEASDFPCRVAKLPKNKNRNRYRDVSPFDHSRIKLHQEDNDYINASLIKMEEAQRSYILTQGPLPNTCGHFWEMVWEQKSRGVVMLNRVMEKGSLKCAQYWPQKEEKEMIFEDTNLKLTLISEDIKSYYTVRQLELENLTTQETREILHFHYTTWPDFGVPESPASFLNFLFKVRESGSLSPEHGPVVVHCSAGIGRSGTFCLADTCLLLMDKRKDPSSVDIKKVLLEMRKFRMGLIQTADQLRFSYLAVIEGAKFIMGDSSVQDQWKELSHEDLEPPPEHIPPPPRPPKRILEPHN
Protocol: as §1

[1] = pKa of the tetrahydropyridine ring; type: physicochemical; conditions: positively charged tetrahydropyridine ring
[2] = pH 5.5, D1, read-out: Ki values, PTPε D1
[3] = pH 5.5, read-out: Ki values, PTPβ
[4] = pH 5.5, D1, read-out: Ki values, PTPα D1
[5] = pH 5.5, read-out: Ki values, PTP1B
[6] = pH 7, D1 (Table 3), read-out: Ki values, PTPα D1
[7] = pH 7, D1 (Table 3), read-out: Ki values, PTPε D1
[8] = pH 7 (Table 3), read-out: Ki values, PTPβ
[9] = pH 7 (Table 6), read-out: Ki, PTP1B residue 48 Asp
[10] = pH 7 (Table 6), read-out: Ki, PTP ε residue 48 Asn
[11] = pH 7 (Table 6), read-out: Ki, PTP β residue 48 Asn
[12] = pH 7 (Table 6), read-out: Ki, PTP α residue 48 Asn

T1 sequence (P23469 135-394 limits assumed): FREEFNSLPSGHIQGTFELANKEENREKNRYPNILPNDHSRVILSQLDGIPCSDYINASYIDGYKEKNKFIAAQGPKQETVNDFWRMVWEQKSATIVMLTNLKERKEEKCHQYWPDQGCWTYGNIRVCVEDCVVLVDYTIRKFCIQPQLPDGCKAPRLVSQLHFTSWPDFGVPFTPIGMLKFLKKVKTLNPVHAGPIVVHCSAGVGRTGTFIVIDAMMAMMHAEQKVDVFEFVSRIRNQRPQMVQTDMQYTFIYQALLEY

Row | Ki (PTPε; [2]) [µM] | Ki (PTPβ; [3]) [µM] | Ki (CD45; pH 5.5, D1D2) [µM] | Ki (LAR) [µM] | Ki (PTPα; [4]) [µM] | Ki (SHP-1) [µM] | Ki (PTP1B; [9]) [µM] | Ki (PTPβ; [11]) [µM] | Structure (SMILES) | other results
1 | 45 | 14 | 40 | 400 | 300 | 120 |  |  | O=C(O)C(=O)Nc1sc2c(c1C(=O)O)CCCC2 [Example 2-OBTA] | 
2 | 350 | 160 | 250 | > 2000 | 500 | > 2000 |  |  | O=C(O)C(=O)Nc1ccsc1C(=O)O [Example 3-OTA, 3-(oxalyl-amino)-thiophene-2-carboxylic acid] | Ki (PTP1B; [5]): 61 µM
3 |  |  |  |  |  |  | 0.25 | 47 | CCOC(=O)N1Cc2sc(NC(=O)C(=O)O)c(C(=O)O)c2CC1CN1C(=O)c2ccccc2C1=O (centres unmarked) [Example 48, 5-(1,3-Dioxo-1,3-dihydro-isoindol-2-ylmethyl)-2-(oxalyl-amino)-4,5,6,7-tetrahydro-thieno[2,3-c]pyridine-3,6-dicarboxylic acid 6-ethyl ester] | Ki (PTPε; [10]): 380 µM; Ki (PTPα; [12]): 900 µM

Continued, compound first:

Row | Structure (SMILES) | Ki (PTPε; [2]) [µM] | Ki (PTPβ; [3]) [µM] | Ki (CD45; pH 5.5, D1D2) [µM] | Ki (LAR) [µM] | Ki (PTPα; [4]) [µM] | Ki (SHP-1) [µM] | Ki (PTP1B; [9]) [µM] | Ki (PTPβ; [11]) [µM] | other results
4 | O=C(O)C(=O)Nc1sccc1C(=O)O [Example 2-OTA, 2-(oxalyl-amino)-thiophene-3-carboxylic acid] | 590 | 18 | 70 | > 2000 | 1700 | 60 |  |  | Ki (PTP1B; [5]): 62 µM
5 | O=C(O)C(=O)Nc1sc2c(c1C(=O)O)CCOC2 [Example 2-OTPA, 2-(Oxalyl-amino)-4,7-dihydro-thieno[2,3-c]pyran-3-carboxylic acid] |  |  |  |  | 270 |  |  |  | Ki (PTPα; [6]): 1100 µM
6 | O=C(O)C(=O)Nc1sc2c(c1C(=O)O)CCNC2 [Example 2-OTPyA, 2-(Oxalyl-amino)-4,5,6,7-tetrahydro-thieno[2,3-c]pyridine-3-carboxylic acid] | 600 | 150 | 110 | > 2000 | > 2000 | 900 |  |  | Ki (PTP1B; [5]): 0.3 µM; pKa [1]: > 10
7 | O=C(O)C(=O)Nc1sc2c(c1C(=O)O)CC(CN1C(=O)c3cccc(O)c3C1=O)OC2 (centres unmarked) [Example 4, 5-(4-Hydroxy-1,3-dioxo-1,3-dihydro-isoindol-2-ylmethyl)-2-(oxalyl-amino)-4,7-dihydro-5H-thieno[2,3-c]pyran-3-carboxylic acid] |  |  |  |  |  |  |  |  | Ki (PTP1B; pH 7 (Table 3), read-out: Ki values, PTP1B): 1.9 µM; Ki (PTPε; [7]): 11 µM; Ki (PTPβ; [8]): 1.1 µM; Ki (CD45; pH 7, D1D2 (Table 3)): 130 µM; Ki (PTPα; [6]): 93 µM
8 | COc1ccc2c(c1)C(=O)N(CC1OCCc3c1sc(NC(=O)C(=O)O)c3C(=O)O)C2=O (centres unmarked) [Example 26, 7-(5-Methoxy-1,3-dioxo-1,3-dihydro-isoindol-2-ylmethyl)-2-(oxalyl-amino)-4,7-dihydro-5H-thieno[2,3-c]pyran-3-carboxylic-acid] |  |  |  |  |  |  |  |  | Ki (PTPε; [7]): 330 µM; Ki (PTPβ; [8]): 8.9 µM; Ki (CD45; pH 7, D1D2 (Table 3)): 380 µM; Ki (PTPα; [6]): 620 µM
9 | O=C(O)C(=O)Nc1sc2c(c1C(=O)O)CC(CN1C(=O)c3ccccc3C1=O)NC2 (centres unmarked) [Example 49, 5-(1,3-Dioxo-1,3-dihydro-isoindol-2-ylmethyl)-2-(oxalyl-amino)-4,5,6,7-tetrahydro-thieno[2,3-c]pyridine-3-carboxylic acid] |  |  |  |  |  |  | 0.085 | 8.6 | 
10 | O=C(O)C(=O)Nc1sc2c(c1C(=O)O)C[C@@H](CN1C(=O)c3ccccc3C1=O)NC2 [Example 50, (L)-5-(1,3-Dioxo-1,3-dihydro-isoindol-2-ylmethyl)-2-(oxalyl-amino)-4,5,6,7-tetrahydro-thieno[2,3-c]pyridine-3-carboxylic acid] |  |  |  |  |  |  | 0.07 | 8 | Ki (PTPα; [12]): 1000 µM
11 | O=C(O)C(=O)Nc1sc2c(c1C(=O)O)CC(CN1C(=O)c3cccc(O)c3C1=O)NC2 (centres unmarked) [Example 52, 5-(4-Hydroxy-1,3-dioxo-1,3-dihydro-isoindol-2-ylmethyl)-2-(oxalyl-amino)-4,5,6,7-tetrahydro-thieno[2,3-c]pyridine-3-carboxylic acid] |  |  |  |  |  |  | 1.2 | 107 | fold increase of affinity for PTP1B compared to 2-OTPyA (PTP1B): about 13 fold; Ki (PTPε; [10]): > 500 µM; Ki (PTPα; [12]): > 400 µM
12 | O=C(O)C(=O)Nc1ccccc1C(=O)O [OBA, 2-(oxalyl-amino)-benzoic acid] | 125 | 32 | 160 | > 2000 | 700 | 530 |  |  | 
